Where “and” joins values, the source holds several entries; their conditions need not be identical. Identical values can stand only once. Like-named read-outs stand apart in the source and are kept apart here.
Columns and labels:
[1] = mild steel corrosion inhibition, ASTM G31-72 coupon weight loss
Experimental: (§1) Corrosion inhibition studies of various compounds of Formula (I) were conducted according to ASTM method G31-72 (2004). The following is the general test method.
(§2) Aqueous solutions of the test compound (900 mL) were prepared with city water for mild steel corrosion studies or a dilute sea salt solution (1000 ppm in deionized water) for copper corrosion studies. The solutions were magnetically stirred at a constant rate in a 1 L beaker and three coupons of either mild steel or copper were suspended in each beaker. After 5 days (steel) or 7 days (copper), the coupons were removed and cleaned according to ASTM method G1-03. Average weight loss was determined for each set of three coupons and then converted to corrosion rate in terms of mils per year (mpy).
These tests compare the corrosion inhibition of compounds of Formula (I), namely from Table 1, in the first set of comparisons, Compound A with Compound 13, and Compound B with Compound 1, and with 2-hydroxypropane-1,2,3-tricarboxylic acid. Thus five samples were tested relative to a blank and a standard, (1-hydroxyethan-1,1-diyl)bis(phosphonic acid), after 5 days at 26 μM concentrations. […] Concentrations were 26 μM.
Additional mild steel corrosion tests were performed at 130 μM concentration of compounds of Formula (I) and comparative compounds for 5 days. The next test compared the corrosion inhibition of Compound 8 with 2,3-dihydroxybutanedioic acid and Compound B, and Compound 4 with (1-hydroxyethan-1,1-diyl)bis(phosphonic acid) and Compound B. Also included was Compound 1 for reference. Concentrations in this set were 130 μM.

[2] = copper corrosion inhibition, ASTM G31-72 coupon weight loss
Experimental: as §1, §2
The first test of copper corrosion inhibition compared Compound A with Compound 13 (from Table 1), 2-hydroxypropane-1,2,3-tricarboxylic acid, and a commercial inhibitor, Na-TAI.

[3] = system: sessile microbial population (biofilm on stainless steel washers); assay: time-kill biocidal efficacy, hybrid planktonic-sessile procedure: sessile population; type: cell-based, natural mixed aerobic microbial population; conditions: 10 ppm Compound B, others equimolar; for Sessile, 20-24 h, % of Control / Sessile, 48-54 h, % of Control / Sessile, 120 h, % of Control / Sessile CFU/, 20-24 h / Sessile CFU/, 48-54 h / Sessile CFU/, 120 h / Sessile CFU/, Total / Sessile, Total, % of Control / activity at 10 ppm: exposure 110 minutes; for Sessile CFU/, 20-24 h / Sessile CFU/, 48-54 h / Sessile CFU/, 120 h / Sessile CFU/, Total: per washer; for reduction in the total sessile population: 110 minutes
Experimental: An experiment was conducted to assess biocidal effectiveness of Compounds A and B and their respective Compounds 13 and 1 anion analogs. Time-kill tests were conducted using a hybrid planktonic-sessile procedure which allowed assessment of biocidal effectiveness against both planktonic and sessile microbial populations. A natural mixed aerobic microbial population in samples collected from an operating cooling tower was used as inoculum for the test. Biocide test concentration for Compound B was 10 ppm. All other products were tested at the equivalent molar concentration. Biocide exposure was 110 minutes. The following procedure was used which generally followed the biocidal testing method of Walter, R. W. and Cooke, L. […] A New Multifunctional Biocide Which Enhances Corrosion Inhibition,” NACE Paper 410, 1997. A water sample was collected from a cooling tower that contained a natural mixed population of microorganisms that grew at different rates when plated on Petrifilm. The populations of cells that grew on Petrifilm in 20-24 hours, 48-54 hours and at 120 hours were treated as separate populations. […] The washers were allowed seven days to develop a biofilm on their surface. Prior to chemical treatment, 10 mL aliquots of the CTW were removed from the beaker and placed into individual exposure test tubes along with a single washer. Test compounds were then added to the individual tubes at equimolar concentrations. All exposure tests including untreated controls were conducted in triplicate (i.e., three washers in separate exposure tubes). After addition of the test compound, the tube was briefly mixed by mild vortexing and again occasionally throughout the exposure time. Washer sonication to release organisms not released by the chemical treatment: […], the washer was removed from the tube, dipped 10 times in Letheen broth, then placed into a 9 mL tube of sterile Butterfields buffer, and sonicated for 8 minutes. Determination of cell population removed from washers by sonication: After the tube with washer was sonicated, a 1 mL aliquot was plated onto petrifilm and a serial dilution in Butterfields Buffer was performed with each dilution being plated to petrifilm. Determination of colony forming units (CFU) at different incubation times: After plating the various solutions on Petrifilm, the films were incubated at 36° C. for the first 24 hours. At 20 hours the […] read and CFU were recorded. This population was defined as a fast growing population. The […] then incubated for additional time either at 36° C. or room temperature and read at 54 hours. This second population is in addition to the fast growth rate population and was defined as moderate growth rate organisms. Incubation was continued and the […] again after 120 hours. This third population was also treated as separate from the fast and moderate growth rate populations and is referred to as the slow growth rate population. As noted above, each compound was evaluated in triplicate with three separate washers and the results were averaged. Average CFU/mL values were used to calculate total planktonic test population (CFU/10 mL) and total sessile test population (CFU/washer) in each test system.

[4] = 130 μM, Table 5 (blank 12.5 mpy)
[5] = 5 days, 130 μM, Table 4 (blank 24 mpy)

Compound: CCCCCCCCCCOCCCN.O=C(O)CC(O)(CC(=O)O)C(=O)O [Compound 1, 2-hydroxypropane-1,2,3-tricarboxylic acid salt of aminopropyloxydecane]
- Inhibition relative to blank [1, 4]: 87%
- Inhibition relative to blank ([1]; 5 days, 26 μM, Table 3): 60%
- Inhibition relative to blank [1, 5]: 88%
- Inhibition relative to blank ([2]; 42 μM, Table 7): 54%
- Sessile, 20-24 h, % of Control ([3]; 20-24 h incubation): 104.9%
- Sessile, 48-54 h, % of Control ([3]; 48-54 h incubation): 4.4%
- Sessile, 120 h, % of Control ([3]; 120 h incubation): 38.7%
- Sessile CFU/, 20-24 h ([3]; 20-24 h incubation): 234 CFU/
- Sessile CFU/, 48-54 h ([3]; 48-54 h incubation): 36,000 CFU/
- Sessile CFU/, 120 h ([3]; 120 h incubation): 265,000 CFU/
- Sessile CFU/, Total ([3]; total population): 301,000 CFU/
- Sessile, Total, % of Control ([3]; total population): 19.9%

Compound: CCCCCCCCCCSCCN.Cl [Compound A, 2-(decylthio)ethanamine hydrochloride]
- Inhibition relative to blank ([1]; 5 days, 26 μM, Table 3, hydrochloride): 3.3% and 3%
- Inhibition relative to blank ([2]; 7 days, 17 μM, Table 6): 41%
- reduction in the total sessile population [3]: 96%
- activity at 10 ppm ([3]; 20-24 h incubation, read-out: Sessile, 20-24 h, % of Control): 182%
- activity at 10 ppm ([3]; 48-54 h incubation, read-out: Sessile, 48-54 h, % of Control): 0.04%
- activity at 10 ppm ([3]; 110 min, total population, read-out: Sessile, Total, % of Control): 4%
- activity at 10 ppm ([3]; 120 h incubation, read-out: Sessile, 120 h, % of Control): 8.8%
- Sessile CFU/, 20-24 h ([3]; 20-24 h incubation): 405 CFU/
- Sessile CFU/, 48-54 h ([3]; 48-54 h incubation): 360 CFU/
- Sessile CFU/, 120 h ([3]; 120 h incubation): 60,000 CFU/
- Sessile CFU/, Total ([3]; total population): 60,800 CFU/

Compound: CC(=O)O.CCCCCCCCCCOCCCN [Compound B, ethanoic acid salt of aminopropyloxydecane]
- Inhibition relative to blank [1, 4]: −1%
- Inhibition relative to blank ([1]; 5 days, 26 μM, Table 3, 26 µM): 1.6% and 2%
- Inhibition relative to blank [1, 5]: −1%
- Inhibition relative to blank ([2]; 42 μM, Table 7): 32%
- reduction in the total sessile population [3]: 80%
- Sessile, 20-24 h, % of Control ([3]; 20-24 h incubation): 92.8%
- Sessile, 48-54 h, % of Control ([3]; 48-54 h incubation): 6.0%
- Sessile, 120 h, % of Control ([3]; 120 h incubation): 37.7%
- Sessile CFU/, 20-24 h ([3]; 20-24 h incubation): 207 CFU/
- Sessile CFU/, 48-54 h ([3]; 48-54 h incubation): 49,200 CFU/
- Sessile CFU/, 120 h ([3]; 120 h incubation): 258,000 CFU/
- Sessile CFU/, Total ([3]; total population): 307,000 CFU/
- Sessile, Total, % of Control ([3]; total population): 20.3%

From patent publication US9919941B2, “Multiple uses of amine salts for industrial water treatment” (AMSA, Inc., priority 2012, dated 2018)
